Assay results: patent US20180087079A1, “METHODS OF USING CELL-CYCLE INHIBITORS TO MODULATE ONE OR MORE PROPERTIES OF A CELL CULTURE” (AMGEN INC., priority 2013, published 2018)

What was measured:
CDK4/Cyclin D1 = biological target: T1, CDK4/Cyclin D1 (Homo sapiens, UniProt P11802); test: CDK4 filtration kinase assay; format: biochemical; conditions: CDK4/Cyclin D1, Rb fragment substrate, [33P]-ATP
T1 construct: purchased Cell Signaling Technology
Protocol: The CDK4 inhibitory activity of the cell cycle inhibitors was determined with a filtration kinase assay. The compounds, kinase and substrate diluted in the kinase buffer (20 mM Tris, pH7.4, 50 mM NaCl, 1 mM DTT, 0.1% BSA) were sequentially added to a 96-well Multiscreen HTS filtration plate (Millipore). The final 100 μL reaction mixture in each well contained 0.3 μg of CDK4/Cyclin D1 (Cell Signaling Technology), 1 μg of Rb fragment (aa773-928, Millipore) for the CDK4 assay and 1 μCi of [^33P]-ATP. The mixture was incubated at room temperature for 1 hour. The proteins in the reaction were then precipitated and washed with cold TCA solution using an aspiration/filtration vacuum system. The plates were dried at room temperature, and the retained radioactivity was measured by scintillation counting. IC50 values of the compounds in the above assays were determined by non-linear regression analysis using Prism (GraphPad Software).

[1] = system: transfected CHO cells expressing recombinant human monoclonal antibody (cell line 1); test: 24-deep well culture, cell line 1: VCD, viability, titer, qP; format: cell-based, Chinese hamster; conditions: for Titer / VCD / Viability / qP: Cell Line 1; for effect on viability / growth arrest: summary of Table 2
Protocol: Transfected CHO cells expressing a recombinant human monoclonal antibody (mAb) are cultured in 24-deep well plates with seeding density at 1×10^7/mL for five days. At certain time periods, samples of the cultures are taken and evaluated for viable cell density (VCD; expressed in 10^6 cells/mL); percent viability (as determined by trypan blue exclusion); titer of recombinant protein (expressed in grams of protein per liter of culture, or g/L, as determined by Protein A affinity HPLC); qP, or specific productivity (expressed in picograms of recombinant protein per cell per day, or pg/c/d), the presence or absence of high molecular weight substances (usually an indicator of protein aggregation; expressed as % of the total protein); and the relative percentage of Mannose 5, a major intermediate glyco-form that attaches to N297 of the mAb. N-linked glycosylation has an impact on the tertiary structure of the antibody and may affect Fc mediated antibody effector functions. The majority of the human Fc glycans are complex biantennary structures with galactose as the prevalent terminal sugar. Immature glyco-forms, such as high-mannose glycol-forms (Man5-9), are of concern due to potential higher plasma clearance rate (as compared to the clearance rate of complex glycan linked mAbs).
Compounds are further evaluated essentially as described in Example 2 herein. Briefly, transfected CHO cells expressing recombinant human monoclonal antibody (mAb; two different cell lines expressing two different mAb, referred to as cell line 1 and cell line 2) are cultured in 24-deep well plates in the presence or absence of the compounds. At specified time points, samples of the cultures are taken and evaluated for viable cell density (VCD; expressed in 10^6 cells/mL); percent viability (as determined by any method known in the art); titer of recombinant protein (expressed in grams of protein per liter of culture, or g/L, as determined by Protein A affinity HPLC); qP, or specific productivity (expressed in picograms of recombinant protein per cell per day, or pg/c/d). Additional parameters measure include the presence or absence of high molecular weight substances (usually an indicator of protein aggregation; expressed as % of the total protein); and the relative percentage of Mannose 5. For comparison purposes, Compounds A and B, which had been previously tested, were tested again.

Colo205 = test: [14C]-thymidine incorporation cell proliferation inhibition assay; format: cell-based; conditions: Homo sapiens, COLO 205, 72 hour incubation
Protocol: The cell proliferation inhibition potency of the cell cycle inhibitors was determined by using a [^14C]-thymidine incorporation assay. Exponentially growing cells (Colo205) were seeded in a 96-well Cytostar T plate (GE Healthcare Biosciences) at a density of 5×10^3 cells/well and incubated overnight. Serially diluted compounds and 0.1 μCi of [^14C]-thymidine (GE Healthcare Biosciences) were added to each well on the following day. After 72 hour incubation, isotope incorporation was determined with a β plate counter (Wallac). IC50 values of the compounds in the above assays were determined by non-linear regression analysis using Prism (GraphPad Software).

T1 sequence (P11802 whole entry, species assumed, the tested form may be a part): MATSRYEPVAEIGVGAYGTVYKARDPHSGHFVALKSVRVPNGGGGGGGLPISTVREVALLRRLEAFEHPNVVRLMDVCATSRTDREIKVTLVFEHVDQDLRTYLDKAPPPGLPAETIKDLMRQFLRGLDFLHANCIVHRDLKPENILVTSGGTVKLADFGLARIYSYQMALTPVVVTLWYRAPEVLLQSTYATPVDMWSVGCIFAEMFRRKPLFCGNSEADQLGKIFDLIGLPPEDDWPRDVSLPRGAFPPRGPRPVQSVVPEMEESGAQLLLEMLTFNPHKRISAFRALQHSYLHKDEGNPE
T1 sequence (P24385 whole entry partner, species assumed, the tested form may be a part): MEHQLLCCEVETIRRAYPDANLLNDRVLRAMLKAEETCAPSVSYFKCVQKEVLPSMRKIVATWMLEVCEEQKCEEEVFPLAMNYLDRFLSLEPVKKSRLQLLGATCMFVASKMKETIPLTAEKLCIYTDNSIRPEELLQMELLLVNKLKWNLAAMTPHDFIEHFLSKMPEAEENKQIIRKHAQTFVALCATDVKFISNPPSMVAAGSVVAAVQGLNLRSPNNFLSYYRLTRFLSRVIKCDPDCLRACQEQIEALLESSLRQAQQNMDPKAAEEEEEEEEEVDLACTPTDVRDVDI

**Q.** Which results are given for `CN(C)C1CCN(c2ccc(Nc3ncc4c(n3)C3(C=CC(C)(C)CC3)c3cnccc3-4)cn2)CC1` (stereo not drawn) [Compound F, N-(6-(4-(dimethylamino)piperidin-1-yl)pyridin-3-yl)-4,4-dimethylspiro[cyclohex[2]ene-1,9′-pyrido[4′,3′:3,4]cyclopenta[1,2-d]pyrimidin]-2′-amine]?
**A.** IC50 (CDK4/Cyclin D1): 0.0335 µM; Titer ([1]; 1.2 microM, D 1): 0.49 g/L; VCD ([1]; 1.2 microM, D 1): 11.56 e6/mL; Viability ([1]; 1.2 microM, D 1): 96.84%; qP ([1]; 1.2 microM, D 1): 42.39 pg/c/d; Titer ([1]; 1.2 microM, D 2): 0.73 g/L; VCD ([1]; 1.2 microM, D 2): 10.80 e6/mL; Viability ([1]; 1.2 microM, D 2): 90.23%; qP ([1]; 1.2 microM, D 2): 67.31 pg/c/d; Titer ([1]; 1.2 microM, D 3): 0.96 g/L; VCD ([1]; 1.2 microM, D 3): 11.96 e6/mL; Viability ([1]; 1.2 microM, D 3): 89.40%; qP ([1]; 1.2 microM, D 3): 80.01 pg/c/d; Titer ([1]; 1.2 microM, D 4): 1.13 g/L; VCD ([1]; 1.2 microM, D 4): 14.70 e6/mL; Viability ([1]; 1.2 microM, D 4): 88.76%; qP ([1]; 1.2 microM, D 4): 77.09 pg/c/d; Titer ([1]; 2.4 microM, D 1): 0.50 g/L; VCD ([1]; 2.4 microM, D 1): 11.16 e6/mL; Viability ([1]; 2.4 microM, D 1): 95.96%; qP ([1]; 2.4 microM, D 1): 44.50 pg/c/d; Titer ([1]; 2.4 microM, D 2): 0.75 g/L; VCD ([1]; 2.4 microM, D 2): 10.01 e6/mL; Viability ([1]; 2.4 microM, D 2): 89.97%; qP ([1]; 2.4 microM, D 2): 75.27 pg/c/d; Titer ([1]; 2.4 microM, D 3): 0.97 g/L; VCD ([1]; 2.4 microM, D 3): 10.33 e6/mL; Viability ([1]; 2.4 microM, D 3): 88.89%; qP ([1]; 2.4 microM, D 3): 93.88 pg/c/d; Titer ([1]; 2.4 microM, D 4): 1.18 g/L; VCD ([1]; 2.4 microM, D 4): 12.84 e6/mL; Viability ([1]; 2.4 microM, D 4): 86.16%; qP ([1]; 2.4 microM, D 4): 91.87 pg/c/d; effect on viability [1]: minimal effects on viability; growth arrest [1]: reasonably sustained growth arrest; IC50 (Colo205): 0.0347 µM

**Q.** What does the source list for `CC1CCC(n2c3cnccc3c3cnc(Nc4ccc(N5CCC6(CC5)CCS(=O)(=O)C6)nn4)nc32)CC1` (stereo not drawn) [Compound E, 8-(6-((9-(4-methylcyclohexyl)-9H-pyrido[4′,3′:4,5]pyrrolo[2,3-d]pyrimidin-2-yl)amino)pyridazin-3-yl)-2-thia-8-azaspiro[4.5]decane 2,2-dioxide]?
**A.** IC50 (CDK4/Cyclin D1): 0.00445 µM; Titer ([1]; 5 microM, D 1): 0.47 g/L; VCD ([1]; 5 microM, D 1): 10.31 e6/mL; Viability ([1]; 5 microM, D 1): 95.94%; qP ([1]; 5 microM, D 1): 45.61 pg/c/d; Titer ([1]; 5 microM, D 2): 0.67 g/L; VCD ([1]; 5 microM, D 2): 9.37 e6/mL; Viability ([1]; 5 microM, D 2): 85.43%; qP ([1]; 5 microM, D 2): 71.53 pg/c/d; Titer ([1]; 5 microM, D 3): 0.85 g/L; VCD ([1]; 5 microM, D 3): 10.05 e6/mL; Viability ([1]; 5 microM, D 3): 79.09%; qP ([1]; 5 microM, D 3): 84.92 pg/c/d; Titer ([1]; 5 microM, D 4): 0.98 g/L; VCD ([1]; 5 microM, D 4): 10.39 e6/mL; Viability ([1]; 5 microM, D 4): 72.71%; qP ([1]; 5 microM, D 4): 94.68 pg/c/d; Titer ([1]; 10 microM, D 1): 0.48 g/L; VCD ([1]; 10 microM, D 1): 9.99 e6/mL; Viability ([1]; 10 microM, D 1): 94.71%; qP ([1]; 10 microM, D 1): 47.72 pg/c/d; Titer ([1]; 10 microM, D 2): 0.66 g/L; VCD ([1]; 10 microM, D 2): 9.29 e6/mL; Viability ([1]; 10 microM, D 2): 83.23%; qP ([1]; 10 microM, D 2): 71.04 pg/c/d; Titer ([1]; 10 microM, D 3): 0.83 g/L; VCD ([1]; 10 microM, D 3): 9.55 e6/mL; Viability ([1]; 10 microM, D 3): 76.37%; qP ([1]; 10 microM, D 3): 87.30 pg/c/d; Titer ([1]; 10 microM, D 4): 0.96 g/L; VCD ([1]; 10 microM, D 4): 10.29 e6/mL; Viability ([1]; 10 microM, D 4): 72.16%; qP ([1]; 10 microM, D 4): 92.97 pg/c/d; effect on viability [1]: greater (but still modest) decreases in viability; growth arrest [1]: more sustained growth arrest; IC50 (Colo205): 0.0384 µM
